The text below walks through data of PMC10568492 (Journal of medicinal chemistry, 2023).

Marks after values point to notes of the source that are not given here.

One series concerns VCaP xenograft tumor. Briefly: Antitumor activity in VCaP xenograft tumor model in SCID mice. The conditions noted are these: all doses tested (3.75-25 mg/kg), entire experiment. Format: in vivo, mouse.
The test system of another series is KLK3 (PSA) gene. Put plainly: Suppression of KLK3. The class given is cell-based, human.
Another series is described as follows: PK study in rat. Format: in vivo. The conditions noted are these: male, Sprague-Dawley, plasma, po, 10 mg/kg.
The nature of another series: PK study in mouse. Format: in vivo. The conditions noted are these: male, ICR, plasma, po, 5 mg/kg.
Series [1] deals with T1, AR protein (Homo sapiens, UniProt P10275).
T1 sequence (P10275 1-920): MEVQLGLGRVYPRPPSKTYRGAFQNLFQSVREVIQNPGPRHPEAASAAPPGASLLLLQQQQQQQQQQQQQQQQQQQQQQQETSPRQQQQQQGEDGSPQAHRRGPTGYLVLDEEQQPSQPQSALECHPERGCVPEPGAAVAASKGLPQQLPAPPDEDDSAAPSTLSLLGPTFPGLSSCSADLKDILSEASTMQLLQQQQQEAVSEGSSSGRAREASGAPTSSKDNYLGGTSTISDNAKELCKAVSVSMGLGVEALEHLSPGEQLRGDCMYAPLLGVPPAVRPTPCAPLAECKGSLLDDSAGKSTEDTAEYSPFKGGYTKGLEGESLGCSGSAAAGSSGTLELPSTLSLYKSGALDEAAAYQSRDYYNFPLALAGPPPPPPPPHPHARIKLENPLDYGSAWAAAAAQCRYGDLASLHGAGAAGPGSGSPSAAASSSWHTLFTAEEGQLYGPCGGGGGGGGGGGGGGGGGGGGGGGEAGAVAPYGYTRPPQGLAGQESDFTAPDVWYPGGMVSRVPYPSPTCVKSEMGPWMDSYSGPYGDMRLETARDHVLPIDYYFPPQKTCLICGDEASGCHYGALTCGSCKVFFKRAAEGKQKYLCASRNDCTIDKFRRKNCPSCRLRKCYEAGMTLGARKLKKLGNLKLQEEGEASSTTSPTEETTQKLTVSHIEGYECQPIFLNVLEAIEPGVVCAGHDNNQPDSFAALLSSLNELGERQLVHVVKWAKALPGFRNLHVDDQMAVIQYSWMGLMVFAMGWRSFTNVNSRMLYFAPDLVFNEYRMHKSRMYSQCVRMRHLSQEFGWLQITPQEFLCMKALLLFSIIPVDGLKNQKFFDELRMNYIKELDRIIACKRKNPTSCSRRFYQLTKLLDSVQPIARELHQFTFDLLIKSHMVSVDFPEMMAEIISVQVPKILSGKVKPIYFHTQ
Briefly: AR protein degradation in VCaP cells, Western blotting. Format: cell-based. The conditions noted are these: VCaP and LNCaP cell lines.

Another series in a line: PK study in dog. The class given is in vivo. As to conditions: male, beagle, plasma, po, 1 mg/kg.
The nature of a further series: Oral exposure in mice. As to conditions: for Plasma drug concentration (mean ± SD): mice, 10 mg/kg oral gavage. The class given is in vivo, mouse.
The target in the next series is T2, AR-LBD protein (Rattus norvegicus, UniProt P15207).
T2 sequence (P15207 651-882 limits assumed): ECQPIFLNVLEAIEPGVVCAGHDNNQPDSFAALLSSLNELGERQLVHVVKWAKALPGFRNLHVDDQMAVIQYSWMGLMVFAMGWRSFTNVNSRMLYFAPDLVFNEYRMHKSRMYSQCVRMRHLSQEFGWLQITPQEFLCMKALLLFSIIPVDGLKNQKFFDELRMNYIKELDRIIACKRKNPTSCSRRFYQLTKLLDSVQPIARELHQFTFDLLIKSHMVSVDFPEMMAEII
Put plainly: AR fluorescence-polarization. Format: binding.

The target of series [2] is T1, AR protein. Briefly: Multiplexed quantitative proteomics analysis in VCaP cells. Format: cell-based. As to conditions: 10 μM, 24 h.
[3] abbreviates: male, SCID, mouse, plasma, po, 10 mg/kg.

As for `C[C@H]1CC2(CCN(c3ccc(C(=O)N4CCN(C5CN(c6ccc7c(c6)C(=O)N(C6CCC(=O)NC6=O)C7=O)C5)CC4)cc3)CC2)CN1c1ccc(C#N)c(Cl)c1` (stereo partly drawn) [Compound 30, 2-chloro-4-((3S)-8-(4-(4-(1-(2-(2,6-dioxopiperidin-3-yl)-1,3-dioxoisoindolin-5-yl)azetidin-3-yl)piperazine-1-carbonyl)phenyl)-3-methyl-2,8-diazaspiro[4.5]decan-2-yl)benzonitrile], the signs of toxicity result in the series with VCaP xenograft tumor is on record as “no signs of toxicity”. Also, the “times more potent than Enzalutamide in suppressing KLK3 gene expression” value in the series with KLK3 (PSA) gene (VCaP and LNCaP cell lines) is on record as “at least 30”. For the same molecule, the “suppression of expression of KLK3 gene” value with KLK3 (PSA) gene (VCaP, 1 nM, 24 h) is recorded as 51%. Further, in “PK study in rat”, the AUC(0-t) is 12800 ng·h/mL and the Cmax stood at 1470 ng/mL. In “PK study in mouse”, this molecule gave an AUC(0-t) of 11700 ng·h/mL and a maximum concentration (Cmax) of 1480 ng/mL. The “times more potent than ARV-110 in inducing AR degradation” value on AR protein [1] is listed as 6-9. Further, the AUC in the series “PK study in dog” was determined as 1820 ng·h/mL.

As for `N#Cc1ccc(N2CCC3(CCN(c4ccc(C(=O)N5CCCN(C6CCN(c7ccc8c(c7)C(=O)N(C7CCC(=O)NC7=O)C8=O)CC6)CC5)cc4)CC3)C2)cc1Cl` (stereo not drawn) [Compound 21, 2-chloro-4-(8-(4-(4-(1-(2-(2,6-dioxopiperidin-3-yl)-1,3-dioxoisoindolin-5-yl)piperidin-4-yl)-1,4-diazepane-1-carbonyl)phenyl)-2,8-diazaspiro[4.5]decan-2-yl)benzonitrile], in “Oral exposure in mice” (setting [3]), the concentration at 1 h came out at 46 ± 16 ng/mL, the concentration at 3 h came to 8 ± 1 ng/mL and the concentration at 6 h came out at 11 ± 3 ng/mL.

`N#Cc1ccc(N2CCC3(CCN(c4ccc(C(=O)N5CCN(C6CN(c7ccc8c(c7)C(=O)N(C7CCC(=O)NC7=O)C8=O)C6)CC5)cc4)CC3)C2)cc1Cl` (stereo not drawn) [Compound 27, 2-chloro-4-(8-(4-(4-(1-(2-(2,6-dioxopiperidin-3-yl)-1,3-dioxoisoindolin-5-yl)azetidin-3-yl)piperazine-1-carbonyl)phenyl)-2,8-diazaspiro[4.5]decan-2-yl)benzonitrile]: in “Oral exposure in mice” (setting [3]), the concentration at 1 h is 501 ng/mL, the concentration at 3 h was found to be 171 ng/mL, the concentration at 6 h was determined as 246 ng/mL and the concentration at 24 h turned out to be 44 ng/mL. Further, the “Plasma drug concentration (mean ± SD)” value in “Oral exposure in mice” (1 h, 10 mg/kg) is 501 ± 106 ng/mL. Also, in the series “Oral exposure in mice” (3 h, 10 mg/kg), the “Plasma drug concentration (mean ± SD)” value stood at 171 ± 83 ng/mL. Further, the “Plasma drug concentration (mean ± SD)” value in the series “Oral exposure in mice” (6 h, 10 mg/kg) was 246 ± 27 ng/mL. Further, the “Plasma drug concentration (mean ± SD)” value in the series “Oral exposure in mice” (24 h, 10 mg/kg) came out at 44 ± 5 ng/mL.

At AR-LBD protein, `N#Cc1ccc(N2CCC3(CCN(c4ccccc4)CC3)C2)cc1Cl` [Compound 15a] had a half-inhibitory concentration (IC50) of over 1 µM.

For “2-chloro-4-(8-(4-(4-(4-(2-(2,6-dioxopiperidin-3-yl)-1,3-dioxoisoindolin-5-yl)piperazin-1-yl)piperidin-1-yl)benzoyl)-2,8-diazaspiro[4.5]decan-2-yl)benzonitrile [Compound 20]”, the “Plasma drug concentration (mean ± SD)” value in “Oral exposure in mice” (1 h) is 82^b ng/ml; in “Oral exposure in mice” (3 h) it was 57^b ng/ml; in “Oral exposure in mice” (6 h), 91^b ng/ml; in “Oral exposure in mice” (24 h), 3^b ng/ml.

As for `C[C@H]1CC2(CCN(c3ccc(C(=O)N4CCN(C)CC4)cc3)CC2)CN1c1ccc(C#N)c(Cl)c1` [ARi-12, (S)-2-chloro-4-(3-methyl-8-(4-(4-methylpiperazine-1-carbonyl)phenyl)-2,8-diazaspiro[4.5]decan-2-yl)benzonitrile], the “effect on protein levels (proteomics)” value at AR protein [2] is “did not significantly alter the levels of any proteins analyzed”.

In the case of `CN1CCN(c2ccc(C(=O)N3CCC4(CC3)CCN(c3ccc(C#N)c(Cl)c3)C4)cc2)CC1` [Compound 14b], the “times more potent than 14a in AR binding” value on AR-LBD protein (vs 14a) amounted to 2.
